Patent US10351575B2, “Bicyclic urea, thiourea, guanidine and cyanoguanidine compounds useful for the treatment of pain” (Array BioPharma Inc., priority 2012, dated 2019)

How the values were obtained:
Test in all cases: KinaseProfiler off-target kinase profiling
Type in all cases: biochemical
Conditions in all cases: 10 μM, ATP near Km
[1] = biological target: ULK2 (Homo sapiens (Human), UniProt Q8IYT8)
In short: (§1)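 Percent of control (POC) is reported as the mean of two replicate wells. Each kinase reaction used ATP close to its own Km, and compound was tested at a single concentration of 10 μM.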

[2] = biological target: WNK2 (Homo sapiens (Human), UniProt Q9Y3S1)
In short: as §1

[3] = biological target: JNK1alpha1 (Homo sapiens (Human), UniProt P45983)
In short: as §1

[4] = biological target: MST1 (Homo sapiens (Human), UniProt Q13043)
In short: as §1

[5] = biological target: Hck (Homo sapiens (Human), UniProt P08631)
In short: as §1

[6] = biological target: GRK6 (Homo sapiens (Human), UniProt P43250)
In short: as §1

[7] = biological target: SRC (Homo sapiens (Human), UniProt P12931)
In short: as §1

[8] = biological target: CK1delta (Homo sapiens (Human), UniProt P48730)
In short: as §1

[9] = biological target: DAPK1 (Homo sapiens (Human), UniProt P53355)
In short: as §1

[10] = biological target: MSK2 (Homo sapiens (Human), UniProt O75676)
In short: as §1

[11] = biological target: FGFR2 (Homo sapiens (Human), UniProt P21802)
In short: as §1

[12] = biological target: DCAMKL2 (Homo sapiens (Human), UniProt Q8N568)
In short: as §1

[13] = biological target: Rsk4 (Homo sapiens (Human), UniProt Q9UK32)
In short: as §1

[14] = biological target: EphA2 (Homo sapiens (Human), UniProt P29317)
In short: as §1

[15] = biological target: MELK (Homo sapiens (Human), UniProt Q14680)
In short: as §1

[16] = biological target: CDK5/p25 (Homo sapiens (Human), UniProt Q00535)
In short: as §1

[17] = biological target: RIPK2 (Homo sapiens (Human), UniProt O43353)
In short: as §1

[18] = biological target: EphB3 (Homo sapiens (Human), UniProt P54753)
In short: as §1

[19] = biological target: Pim-1 (Homo sapiens (Human), UniProt P11309)
In short: as §1

[20] = biological target: BLK_m (Mus musculus (Mouse), UniProt P16277)
In short: as §1

[21] = biological target: Pim-3 (Homo sapiens (Human), UniProt Q86V86)
In short: as §1

[22] = biological target: DDR2 (Homo sapiens (Human), UniProt Q16832)
In short: as §1

[23] = biological target: Axl (Homo sapiens (Human), UniProt P30530)
In short: as §1

[24] = biological target: c-RAF (Homo sapiens (Human), UniProt P04049, Y340D/Y341D)
In short: as §1

[25] = biological target: IKKalpha (Homo sapiens (Human), UniProt O15111)
In short: as §1

[26] = biological target: NEK2 (Homo sapiens (Human), UniProt P51955)
In short: as §1

[27] = biological target: IGF-1R Activated (Homo sapiens (Human), UniProt P08069)
In short: as §1

[28] = biological target: PrKX (Homo sapiens (Human), UniProt P51817)
In short: as §1

[29] = biological target: MARK1 (Homo sapiens (Human), UniProt Q9P0L2)
In short: as §1

[30] = biological target: PKCzeta (Homo sapiens (Human), UniProt Q05513)
In short: as §1

[31] = biological target: DMPK (Homo sapiens (Human), UniProt Q09013)
In short: as §1

[32] = biological target: PKCalpha (Homo sapiens (Human), UniProt P17252)
In short: as §1

[33] = biological target: JAK3 (Homo sapiens (Human), UniProt P52333)
In short: as §1

[34] = biological target: NLK (Homo sapiens (Human), UniProt Q9UBE8)
In short: as §1

[35] = biological target: MST2 (Homo sapiens (Human), UniProt Q13188)
In short: as §1

[36] = biological target: TAO1 (Homo sapiens (Human), UniProt Q7L7X3)
In short: as §1

[37] = biological target: SRPK1 (Homo sapiens (Human), UniProt Q96SB4)
In short: as §1

[38] = biological target: Fes (Homo sapiens (Human), UniProt P07332)
In short: as §1

[39] = tested on: CK1_y
In short: as §1

Axl, sequence (P30530 26-894): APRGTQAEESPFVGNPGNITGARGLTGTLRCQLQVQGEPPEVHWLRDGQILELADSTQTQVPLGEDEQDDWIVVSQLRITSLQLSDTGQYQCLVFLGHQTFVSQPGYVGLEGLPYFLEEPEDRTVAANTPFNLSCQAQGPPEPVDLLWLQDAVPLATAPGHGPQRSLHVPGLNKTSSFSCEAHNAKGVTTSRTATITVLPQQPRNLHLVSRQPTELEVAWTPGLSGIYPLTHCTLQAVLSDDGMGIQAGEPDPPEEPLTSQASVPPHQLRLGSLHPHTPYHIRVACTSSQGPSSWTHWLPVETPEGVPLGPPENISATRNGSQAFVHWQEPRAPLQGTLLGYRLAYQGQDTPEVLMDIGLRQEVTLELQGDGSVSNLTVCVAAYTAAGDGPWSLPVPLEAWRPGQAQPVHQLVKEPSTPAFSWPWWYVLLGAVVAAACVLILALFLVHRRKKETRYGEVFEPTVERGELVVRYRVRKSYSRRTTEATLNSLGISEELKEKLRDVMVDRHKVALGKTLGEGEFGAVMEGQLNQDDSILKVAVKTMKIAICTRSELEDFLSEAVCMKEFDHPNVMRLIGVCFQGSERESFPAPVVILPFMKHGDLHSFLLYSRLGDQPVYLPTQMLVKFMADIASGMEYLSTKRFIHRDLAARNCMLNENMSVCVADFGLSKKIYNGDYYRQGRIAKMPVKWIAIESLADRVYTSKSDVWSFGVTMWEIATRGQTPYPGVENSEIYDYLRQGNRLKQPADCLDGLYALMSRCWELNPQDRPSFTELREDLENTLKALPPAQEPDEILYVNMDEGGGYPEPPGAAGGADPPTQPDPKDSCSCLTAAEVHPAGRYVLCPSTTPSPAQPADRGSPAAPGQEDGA
RIPK2, sequence (O43353 whole entry): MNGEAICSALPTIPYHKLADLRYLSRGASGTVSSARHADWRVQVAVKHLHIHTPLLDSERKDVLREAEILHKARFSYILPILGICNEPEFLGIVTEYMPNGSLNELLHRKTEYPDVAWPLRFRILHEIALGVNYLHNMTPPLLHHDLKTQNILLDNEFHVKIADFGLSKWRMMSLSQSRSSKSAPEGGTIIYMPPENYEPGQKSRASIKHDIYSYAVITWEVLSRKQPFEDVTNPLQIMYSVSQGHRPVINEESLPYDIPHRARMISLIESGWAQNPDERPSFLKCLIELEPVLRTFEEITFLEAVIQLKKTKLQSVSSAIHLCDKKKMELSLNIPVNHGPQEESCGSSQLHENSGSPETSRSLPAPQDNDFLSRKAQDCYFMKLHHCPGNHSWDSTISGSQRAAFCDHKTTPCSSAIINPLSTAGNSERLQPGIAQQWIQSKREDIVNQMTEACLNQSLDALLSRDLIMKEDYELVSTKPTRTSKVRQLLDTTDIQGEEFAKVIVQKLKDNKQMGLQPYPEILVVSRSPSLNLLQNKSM
NLK, sequence (Q9UBE8 whole entry): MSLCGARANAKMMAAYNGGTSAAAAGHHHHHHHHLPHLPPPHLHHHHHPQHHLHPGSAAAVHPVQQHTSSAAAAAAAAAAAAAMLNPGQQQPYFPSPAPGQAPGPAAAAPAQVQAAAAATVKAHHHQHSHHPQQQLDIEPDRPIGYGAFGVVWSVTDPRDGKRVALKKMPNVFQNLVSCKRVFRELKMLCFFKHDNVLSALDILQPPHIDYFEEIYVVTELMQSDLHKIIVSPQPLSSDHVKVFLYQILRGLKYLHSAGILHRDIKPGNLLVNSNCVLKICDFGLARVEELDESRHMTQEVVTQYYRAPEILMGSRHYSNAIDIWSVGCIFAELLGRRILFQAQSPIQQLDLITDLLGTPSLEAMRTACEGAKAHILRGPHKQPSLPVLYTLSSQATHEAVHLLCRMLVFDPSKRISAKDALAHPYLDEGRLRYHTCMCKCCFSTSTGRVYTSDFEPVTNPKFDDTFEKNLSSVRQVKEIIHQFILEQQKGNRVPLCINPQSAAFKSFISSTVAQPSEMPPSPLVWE
DCAMKL2, sequence (Q8N568 whole entry): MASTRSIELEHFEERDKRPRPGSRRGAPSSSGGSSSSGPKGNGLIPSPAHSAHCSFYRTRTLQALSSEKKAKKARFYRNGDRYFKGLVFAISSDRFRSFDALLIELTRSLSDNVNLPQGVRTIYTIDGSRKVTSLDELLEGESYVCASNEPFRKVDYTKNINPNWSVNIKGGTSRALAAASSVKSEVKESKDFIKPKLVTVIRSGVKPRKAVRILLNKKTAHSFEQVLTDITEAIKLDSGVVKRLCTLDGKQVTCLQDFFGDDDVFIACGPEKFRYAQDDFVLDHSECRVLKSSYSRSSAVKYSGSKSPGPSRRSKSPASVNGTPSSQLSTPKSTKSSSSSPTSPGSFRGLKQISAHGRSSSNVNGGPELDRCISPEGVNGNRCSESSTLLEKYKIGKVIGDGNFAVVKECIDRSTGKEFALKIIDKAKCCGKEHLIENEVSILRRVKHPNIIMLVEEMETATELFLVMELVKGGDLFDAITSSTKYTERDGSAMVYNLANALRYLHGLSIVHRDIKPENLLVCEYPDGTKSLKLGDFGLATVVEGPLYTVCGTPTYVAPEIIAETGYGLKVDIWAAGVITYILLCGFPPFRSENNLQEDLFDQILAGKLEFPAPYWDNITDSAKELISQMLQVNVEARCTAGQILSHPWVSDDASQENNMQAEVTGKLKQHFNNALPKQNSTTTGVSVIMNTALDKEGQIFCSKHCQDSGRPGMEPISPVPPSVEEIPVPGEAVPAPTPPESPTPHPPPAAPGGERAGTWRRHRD
NEK2, sequence (P51955 whole entry): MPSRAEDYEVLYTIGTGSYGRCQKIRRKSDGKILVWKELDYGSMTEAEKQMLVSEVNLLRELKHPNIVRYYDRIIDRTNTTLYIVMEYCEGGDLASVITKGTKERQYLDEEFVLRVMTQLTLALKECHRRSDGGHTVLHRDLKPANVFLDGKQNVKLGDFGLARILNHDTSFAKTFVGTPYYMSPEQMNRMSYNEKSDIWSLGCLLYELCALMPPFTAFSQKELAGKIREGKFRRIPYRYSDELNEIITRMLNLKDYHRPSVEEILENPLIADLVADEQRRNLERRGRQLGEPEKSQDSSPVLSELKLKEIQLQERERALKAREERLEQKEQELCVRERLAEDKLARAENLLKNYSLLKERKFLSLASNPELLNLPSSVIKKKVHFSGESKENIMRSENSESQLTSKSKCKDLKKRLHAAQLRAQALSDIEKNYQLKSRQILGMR
JNK1alpha1, sequence (P45983 other isoform, or with tags, fused parts or gaps): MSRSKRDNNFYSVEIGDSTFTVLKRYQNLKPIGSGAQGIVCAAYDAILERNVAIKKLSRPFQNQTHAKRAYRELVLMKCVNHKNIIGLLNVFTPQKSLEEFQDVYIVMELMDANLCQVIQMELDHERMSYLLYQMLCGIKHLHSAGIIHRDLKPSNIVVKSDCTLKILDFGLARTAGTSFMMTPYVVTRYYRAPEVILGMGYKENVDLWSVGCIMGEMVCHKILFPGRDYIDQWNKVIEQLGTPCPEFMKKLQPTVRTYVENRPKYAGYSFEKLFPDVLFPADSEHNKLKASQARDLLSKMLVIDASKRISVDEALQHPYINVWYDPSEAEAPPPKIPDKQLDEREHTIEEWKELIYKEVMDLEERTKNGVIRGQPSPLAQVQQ
GRK6, sequence (P43250 whole entry): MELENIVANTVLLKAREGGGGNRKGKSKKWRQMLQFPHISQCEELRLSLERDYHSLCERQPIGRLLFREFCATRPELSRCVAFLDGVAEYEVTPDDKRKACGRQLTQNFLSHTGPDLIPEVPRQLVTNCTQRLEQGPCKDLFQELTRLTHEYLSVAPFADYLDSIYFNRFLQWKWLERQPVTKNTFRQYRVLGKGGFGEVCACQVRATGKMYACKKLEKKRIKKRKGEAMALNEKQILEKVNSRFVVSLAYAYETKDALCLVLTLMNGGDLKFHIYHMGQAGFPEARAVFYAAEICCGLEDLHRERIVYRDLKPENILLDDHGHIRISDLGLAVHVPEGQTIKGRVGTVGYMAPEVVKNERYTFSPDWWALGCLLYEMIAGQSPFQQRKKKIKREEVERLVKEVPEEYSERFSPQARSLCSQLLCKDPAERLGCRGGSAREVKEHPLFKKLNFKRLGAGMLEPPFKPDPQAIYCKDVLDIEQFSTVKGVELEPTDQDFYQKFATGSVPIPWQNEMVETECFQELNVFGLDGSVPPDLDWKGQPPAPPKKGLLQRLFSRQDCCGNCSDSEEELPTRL
SRPK1, sequence (Q96SB4 whole entry): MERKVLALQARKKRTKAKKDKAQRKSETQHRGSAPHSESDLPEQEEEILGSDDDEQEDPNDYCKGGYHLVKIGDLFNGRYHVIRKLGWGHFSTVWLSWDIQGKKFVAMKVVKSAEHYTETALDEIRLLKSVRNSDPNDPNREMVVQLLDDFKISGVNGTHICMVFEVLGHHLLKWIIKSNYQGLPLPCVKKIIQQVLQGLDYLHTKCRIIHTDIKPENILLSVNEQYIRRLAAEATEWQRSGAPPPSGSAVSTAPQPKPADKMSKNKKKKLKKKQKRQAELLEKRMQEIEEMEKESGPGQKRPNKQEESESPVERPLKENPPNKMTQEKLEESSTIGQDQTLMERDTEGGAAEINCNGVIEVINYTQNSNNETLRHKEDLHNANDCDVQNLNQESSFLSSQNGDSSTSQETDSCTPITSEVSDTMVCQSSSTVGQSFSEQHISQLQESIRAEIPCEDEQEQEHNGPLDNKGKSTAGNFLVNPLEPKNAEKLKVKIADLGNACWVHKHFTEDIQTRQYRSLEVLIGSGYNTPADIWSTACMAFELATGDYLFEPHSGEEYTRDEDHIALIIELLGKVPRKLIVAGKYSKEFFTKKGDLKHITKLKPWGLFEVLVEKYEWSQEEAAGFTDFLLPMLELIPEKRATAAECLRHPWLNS

| Compound | Avg. POC [1] [POC] | Avg. POC [2] [POC] | Avg. POC [3] [POC] | Avg. POC [4] [POC] | Avg. POC [5] [POC] | Avg. POC [6] [POC] | Avg. POC [7] [POC] | Avg. POC [8] [POC] | Avg. POC [9] [POC] | Avg. POC [10] [POC] | Avg. POC [11] [POC] | Avg. POC [12] [POC] | Avg. POC [13] [POC] | Avg. POC [14] [POC] | Avg. POC [15] [POC] | Avg. POC [16] [POC] | Avg. POC [17] [POC] | Avg. POC [18] [POC] | Avg. POC [19] [POC] | Avg. POC [20] [POC] | also measured |
| --- | --- | --- | --- | --- | --- | --- | --- | --- | --- | --- | --- | --- | --- | --- | --- | --- | --- | --- | --- | --- | --- |
| COCc1ccc2c(c1)C(NC(=O)Nc1c(C)c(-c3cnn(C)c3)nn1-c1ccccc1)COC2 (centres unmarked) [Example 32, 1-(1′,4-dimethyl-1-phenyl-1H,1′H-[3,4′-bipyrazol]-5-yl)-3-(6-(methoxymethyl)isochroman-4-yl)urea] | 103 | 108.5 | 118 | 105.5 | 98 | 101 | 108.5 | 135.5 | 131 | 99.5 | 110.5 | 146 | 95 | 118 | 98 | 106 | 99.5 | 87.5 | 109 | 111 | Avg. POC [21]: 112 POC; Avg. POC [22]: 116 POC; Avg. POC [23]: 119.5 POC; Avg. POC [24]: 101.5 POC; Avg. POC [25]: 102 POC; Avg. POC [26]: 108 POC; Avg. POC [27]: 112.5 POC; Avg. POC [28]: 110 POC; Avg. POC [29]: 98.5 POC; Avg. POC [30]: 115 POC; Avg. POC [31]: 98.5 POC; Avg. POC [32]: 110 POC; Avg. POC [33]: 109.5 POC; Avg. POC [34]: 125.5 POC; Avg. POC [35]: 111.5 POC; Avg. POC [36]: 100 POC; Avg. POC [37]: 99.5 POC; Avg. POC [38]: 112.5 POC; Avg. POC [39]: 107.5 POC |
| Cc1c(-c2ccc(=O)n(C)c2)nn(-c2ccccc2)c1NC(=O)NC1CN(CC(F)(F)F)Cc2ccccc21 (centres unmarked) [Example 26, 1-(4-methyl-3-(1-methyl-6-oxo-1,6-dihydropyridin-3-yl)-1-phenyl-1H-pyrazol-5-yl)-3-(2-(2,2,2-trifluoroethyl)-1,2,3,4-tetrahydroisoquinolin-4-yl)urea] | 102 | 108 | 112 | 102 | 91.5 | 100.5 | 104.5 | 121.5 | 135 | 107.5 | 112 | 135 | 99.5 | 102 | 86 | 109 | 98 | 97 | 97.5 | 103.5 | Avg. POC [21]: 98 POC; Avg. POC [22]: 111 POC; Avg. POC [23]: 107 POC; Avg. POC [24]: 106.5 POC; Avg. POC [25]: 112.5 POC; Avg. POC [26]: 100.5 POC; Avg. POC [27]: 98 POC; Avg. POC [28]: 109 POC; Avg. POC [29]: 98.5 POC; Avg. POC [30]: 108.5 POC; Avg. POC [31]: 106 POC; Avg. POC [32]: 107.5 POC; Avg. POC [33]: 112 POC; Avg. POC [34]: 100.5 POC; Avg. POC [35]: 111 POC; Avg. POC [36]: 105.5 POC; Avg. POC [37]: 102.5 POC; Avg. POC [38]: 100.5 POC |
| Cc1c(-c2cnn(C)c2)nn(-c2ccccc2)c1NC(=O)N[C@H]1CCCc2ccccc21 [Example 2, (S)-1-(1′,4-dimethyl-1-phenyl-1H,1′H-3,4′-bipyrazol-5-yl)-3-(1,2,3,4-tetrahydronaphthalen-1-yl)urea] | 99 | 99 | 94 | 111.5 | 85.5 | 103.5 | 99.5 | 117.5 | 108.5 | 112 | 112.5 | 157.5 | 140 | 129 | 142 | 107.5 | 108 | 110 | 173 | 126 | Avg. POC [21]: 98 POC; Avg. POC [22]: 113 POC; Avg. POC [23]: 113.5 POC; Avg. POC [24]: 103.5 POC; Avg. POC [25]: 141.5 POC; Avg. POC [26]: 104 POC; Avg. POC [27]: 95 POC; Avg. POC [28]: 152 POC; Avg. POC [29]: 103 POC; Avg. POC [30]: 122.5 POC; Avg. POC [31]: 105 POC; Avg. POC [32]: 96 POC; Avg. POC [33]: 142.5 POC; Avg. POC [34]: 111 POC; Avg. POC [35]: 110.5 POC; Avg. POC [36]: 110.5 POC; Avg. POC [37]: 122 POC; Avg. POC [38]: 129.5 POC; Avg. POC [39]: 100.5 POC |
| Cc1c(-c2cnn(C)c2)nn(-c2ccccc2)c1NC(=O)NC1CCOc2cc(F)ccc21 (centres unmarked) [Example 12, 1-(1′,4-dimethyl-1-phenyl-1H,1′H-[3,4′-bipyrazol]-5-yl)-3-(7-fluorochroman-4-yl)urea] | 99 | 106.5 | 109.5 | 92 | 103.5 | 103 | 97 | 109.5 | 136 | 127 | 114 | 169 | 101 | 113 | 67 | 104 | 99 | 89 | 106 | 112 | Avg. POC [21]: 100.5 POC; Avg. POC [22]: 107 POC; Avg. POC [23]: 106 POC; Avg. POC [24]: 96 POC; Avg. POC [25]: 119.5 POC; Avg. POC [26]: 91.5 POC; Avg. POC [27]: 102.5 POC; Avg. POC [28]: 118.5 POC; Avg. POC [29]: 104 POC; Avg. POC [30]: 99.5 POC; Avg. POC [31]: 104 POC; Avg. POC [32]: 104 POC; Avg. POC [33]: 112 POC; Avg. POC [34]: 115.5 POC; Avg. POC [35]: 106.5 POC; Avg. POC [36]: 104 POC; Avg. POC [37]: 97.5 POC; Avg. POC [38]: 110 POC; Avg. POC [39]: 101 POC |
